Converted amounts (≈) assume the structure as drawn. “And” between values parts separate entries of the source, which are not always exact repeats. Equal entries are not always repeated. Where two headings read alike, the source gives them in different places.
What was measured:
E. coli Juhl = experiment: In vivo activity (Mice, sc); conditions: several determinations listed; for ED50: Escherichia coli, read-out: PD50
Text: (§1) |In vivo Activity of BB-[…] and Related Compounds (Mice, sc) | (PD50 (mgm./kg.)

S. aureus Smith = experiment: In vivo activity (Mice, sc); conditions: several determinations listed; for ED50: Staphylococcus aureus, read-out: PD50
Text: as §1

Proteus (indole +) = experiment: In vitro activity (geometric mean MIC, serial dilution); assay type: cell-based; conditions: read-out: Geometric Mean MIC
S. aureus (sensitive) = experiment: as above; assay type: cell-based; conditions: Staphylococcus aureus, read-out: Geometric Mean MIC
Proteus (indole-) = experiment: as above; assay type: cell-based; conditions: read-out: Geometric Mean MIC
[1] = system: S. aureus (Methicillin-R); experiment: as above; assay type: cell-based; conditions: Staphylococcus aureus; 15 strains; Mueller-Hinton agar, inoculum 10^4 dilution; MIC cutoff 200 mcg./ml.
D. pneumoniae = experiment: as above; assay type: cell-based; conditions: Streptococcus pneumoniae; 9 strains; Mueller-Hinton agar, inoculum 10^4 dilution; MIC cutoff 200 mcg./ml.
S. pyogenes = experiment: as above; assay type: cell-based; conditions: Streptococcus pyogenes; 10 strains; Mueller-Hinton agar, inoculum 10^4 dilution; MIC cutoff 200 mcg./ml.
Enterobacter (sensitive) = experiment: as above; assay type: cell-based; conditions: 3 strains, Mueller-Hinton agar, inoculum 10^4 dilution, MIC cutoff 200 mcg./ml., read-out: Geometric Mean MIC
E. coli (sensitive) = experiment: as above; assay type: cell-based; conditions: Escherichia coli, read-out: Geometric Mean MIC
[2] = system: S. aureus penicillinase+); experiment: as above; assay type: cell-based; conditions: Staphylococcus aureus, read-out: Geometric Mean MIC
S. marcescens = experiment: as above; assay type: cell-based; conditions: Serratia marcescens; 16 strains; Mueller-Hinton agar, inoculum 10^4 dilution; MIC cutoff 200 mcg./ml.; read-out: Geometric Mean MIC
[3] = system: Proteus (indole +, cephalosporinase +); experiment: as above; assay type: cell-based; conditions: 5 strains; Mueller-Hinton agar, inoculum 10^4 dilution; MIC cutoff 200 mcg./ml.; read-out: Geometric Mean MIC
Klebsiella sp. = experiment: as above; assay type: cell-based; conditions: read-out: Geometric Mean MIC
Providencia sp. = experiment: as above; assay type: cell-based; conditions: 5 strains, Mueller-Hinton agar, inoculum 10^4 dilution, MIC cutoff 200 mcg./ml., read-out: Geometric Mean MIC
rabbits = experiment: Preliminary nephrotoxicity study; assay type: in vivo; conditions: two rabbits, 100 mg./kg. intravenously
Procedure: A preliminary nephrotoxicity study was carried out by administration of the test compound to a group of two rabbits at 100 mg./kg. intravenously.

[4] = system: Enterobacter (Cephalosporinase +); experiment: In vitro activity (geometric mean MIC, serial dilution); assay type: cell-based; conditions: 7 strains, Mueller-Hinton agar, inoculum 10^4 dilution, MIC cutoff 200 mcg./ml.
[5] = system: E. coli (Penicillinase +); experiment: as above; assay type: cell-based; conditions: Escherichia coli; 7 strains; Mueller-Hinton agar, inoculum 10^4 dilution; MIC cutoff 200 mcg./ml.; read-out: Geometric Mean MIC
[6] = system: Miscellaneous (Salmonella, Shigella, Citrobacter); experiment: microbe, parasite or virus in culture; conditions: read-out: Geometric Mean MIC
[7] = system: 51 gram-positive and 96 gram-negative bacteria; experiment: In vitro activity against 147 test organisms (overall comparison); assay type: cell-based; conditions: compared with BB-S483 and BB-S469, respectively
Procedure: The MIC's were determined by the serial dilution method using Mueller-Hinton agar against 51 gram-positive and 96 gram-negative bacteria. The 147 test organisms were classified into 16 groups according to the genera and the types of antibiotic resistance, 5 groups for gram-positive and 11 for gram-negative bacteria.

Compound | ED50 (E. coli Juhl) | ED50 (S. aureus Smith) | MIC (Proteus (indole +)) | MIC (S. aureus (sensitive)) | MIC [1] | MIC (D. pneumoniae) | MIC (S. pyogenes) | MIC (Enterobacter (sensitive)) | MIC [2] | MIC (S. marcescens) | MIC [3] | MIC (Providencia sp.) | MIC [4] | MIC [5] | MIC [6] | other results
NCc1ccccc1CC(=O)N[C@@H]1C(=O)N2C(C(=O)O)=C(CSc3ccc4nn(CC(=O)O)c(=O)n4n3)CS[C@H]12 [BB-S469] | 0.19 mg/kg | 0.19 mg/kg | 0.5 µg/mL (≈ 0.854 µM) | 0.4 µg/mL (≈ 0.683 µM) | 30 µg/mL (≈ 51.2 µM) | 0.03 µg/mL (≈ 0.0512 µM) | 0.05 µg/mL (≈ 0.0854 µM) | 1 µg/mL (≈ 1.71 µM) | 1.2 µg/mL (≈ 2.05 µM) | 130 µg/mL (≈ 222 µM) | 11 µg/mL (≈ 18.8 µM) | 4.2 µg/mL (≈ 7.17 µM) | 4.7 µg/mL (≈ 8.03 µM) | 11 µg/mL (≈ 18.8 µM) | 0.7 µg/mL (≈ 1.2 µM) | PD50 (E. coli Juhl): 0.24 mgm./kg. and 0.15 mgm./kg.; PD50 (S. aureus Smith): 0.16 mgm./kg. and 0.29 mgm./kg. and 0.2 mgm./kg.; MIC (Proteus (indole-); 6 strains, Mueller-Hinton agar, inoculum 10^4 dilution, MIC cutoff 200 mcg./ml.): 0.6 µg/mL (≈ 1.02 µM); MIC (E. coli (sensitive)): 0.3 µg/mL (≈ 0.512 µM); MIC (Klebsiella sp.): 0.9 µg/mL (≈ 1.54 µM); nephrotoxic potential (rabbits): little nephrotoxic potential
CNCc1ccsc1CC(=O)N[C@@H]1C(=O)N2C(C(=O)O)=C(CSc3ccc4nn(CC(=O)O)c(=O)n4n3)CS[C@H]12 [BB-S472, 7-(3-Methylaminomethyl-2-thienylacetamido)-3-(2-carboxymethyl-2,3-dihydro-s-triazolo[4,3-b]pyridazin-3-on-6-ylthiomethyl)-3-cephem-4-carboxylic Acid] | 0.19 mg/kg | 0.12 mg/kg | 0.3 µg/mL (≈ 0.495 µM) | 0.4 µg/mL (≈ 0.66 µM) | 58 µg/mL (≈ 95.8 µM) | 0.05 µg/mL (≈ 0.0826 µM) | 0.05 µg/mL (≈ 0.0826 µM) | 1.3 µg/mL (≈ 2.15 µM) | 0.9 µg/mL (≈ 1.49 µM) | 200 µg/mL (≈ 330 µM) | 8.3 µg/mL (≈ 13.7 µM) | 4.8 µg/mL (≈ 7.92 µM) | 3.2 µg/mL (≈ 5.28 µM) | 15 µg/mL (≈ 24.8 µM) | 0.4 µg/mL (≈ 0.66 µM) | MIC (Proteus (indole-)): 0.3 µg/mL (≈ 0.495 µM); MIC (E. coli (sensitive); 13 strains, Mueller-Hinton agar, inoculum 10^4 dilution, MIC cutoff 200 mcg./ml.): 0.2 µg/mL (≈ 0.33 µM); MIC (Klebsiella sp.; 12 strains, Mueller-Hinton agar, inoculum 10^4 dilution, MIC cutoff 200 mcg./ml.): 0.8 µg/mL (≈ 1.32 µM); overall in vitro activity vs. non-N-methylated analogs [7]: better overall activity than their non-N-methylated analogs
